The values below come from PubChem BioAssay AID1250 (SRMLSC, 2008).

Calls of active or inactive are those of the source.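 How the source made its calls: active means inhibition of at least 30% at one or more tested concentrations; inactive means inhibition below 30% at every dose.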

Assay [1] relates to BSR cells, Bluetongue virus CPE, ATP luminescence, 72 h. Description: inhibitors of Bluetongue virus cytopathic effect, confirmation, arbovirus, BSR cells (AID 1250). In general terms: Damage to the host cells serves as the signal in cytopathic effect assays.
Assay in assay [2]: as above
The conditions noted are these: BSR cells, Bluetongue virus CPE, ATP luminescence, 72 h; at 20 µM (top of the series).

A word on the IC50: it is the point on the concentration scale where inhibition reaches its midpoint. As for `CC(C)c1ccc(-c2csc(NC(=O)c3cccs3)c2C(=O)O)cc1`, the IC50 in assay [1] is 11.1 µM.

Take `Cc1nn(-c2ccccc2)c(Cl)c1/C=N/Nc1ccc(Cl)c(C(=O)O)c1`: in assay [1], the half-maximal inhibitory concentration (IC50) is 14.5 µM.

Turning to `O=C(O)c1cccc(N/N=C/C2=C(Cl)c3cc(Cl)ccc3SC2)c1`, the IC50 in assay [1] was 13.2 µM.

On to `O=C(O)CSc1cc(C(=O)c2ccccc2O)cn2c(=O)c3c(-c4ccccc4)csc3nc12`, for which the IC50 in assay [1] was 14.1 µM.

On to `CC(C)COc1ccc(C(=O)Nc2sc3c(c2C(=O)O)CC(C)(C)OC3)cc1`, for which the IC50 in assay [1] is 13.1 µM.

In the case of `COc1ccc(/C=C/C(=O)Nc2ccccc2C(=O)O)cc1OC`, in assay [1], the IC50 is 4.78 µM.

On to `N#Cc1sc2nc(-c3cccs3)cc(-c3ccc(F)cc3)c2c1N`, for which, in assay [1], the concentration for half-maximal inhibition (IC50) was 2.28 µM.

As to `O=C(Nc1ccccc1)Nc1snnc1C(=O)Nc1cccc(O)c1`, the IC50 in assay [1] was 19 µM.

For `CC(C)Sc1nsc2nc(=O)c(/C=C3\C=Nc4ccccc43)c(N)n12`, the IC50 in assay [1] was 10.3 µM.

As for `COc1ccc(NC(=O)c2c[nH]n3c(=O)cc(C4CCN(C(=O)OC(C)(C)C)CC4)nc23)cc1Cl`, in assay [1], the half-maximal inhibitory concentration (IC50) is 12.2 µM.

As for `CC(C)(C)c1ccc(C(=O)Nc2sc3c(c2C(=O)O)CCC3)cc1`, in assay [1], the concentration for half-maximal inhibition (IC50) is 0.165 µM.

With `CC(=O)OC[C@H]1O[C@@H](n2ncc(=O)[nH]c2=O)[C@H](OC(C)=O)[C@@H]1OC(C)=O`, the IC50 in assay [1] is 9.79 µM.

For the compound `CCc1cc(C(=O)O)c(NC(=O)/C=C/c2ccc(OC)c(OC)c2)s1`, in assay [1], the IC50 was 1.68 µM.

On to `CC(NC(=O)c1cccs1)c1nnc(SCc2ccc(Cl)cc2Cl)n1C` (stereo unspecified), for which the IC50 in assay [1] is 9.37 µM.

For the compound `CCOc1ccc(-c2cc3nc(C4CCN(C(=O)OC(C)(C)C)CC4)c(C(=O)O)cn3n2)cc1`, the IC50 in assay [1] is 19.8 µM.

Take `Cc1ccc(-c2csc(NC(=O)c3cccs3)n2)cc1`: in assay [1], the IC50 was 5 µM.

Regarding `COc1cc(C(=O)Nc2nc(-c3ccc(C)cc3)cs2)ccc1OCC(=O)N1CCOCC1`, in assay [1], the IC50 is 4 µM.

Turning to `COc1cc([N+](=O)[O-])ccc1NC(=O)CC1SC(=Nc2ccc(F)cc2)N(CCC2=CCCCC2)C1=O` (stereo unspecified), in assay [1], the 50% inhibitory concentration (IC50) was 0.108 µM.

Turning to `COc1ccc(Cl)cc1NC(=O)c1cc(-c2ccccc2O)n[nH]1`, the half-maximal inhibitory concentration (IC50) in assay [1] was 14.4 µM.

For the compound `Cc1csc(NC(=O)c2c(O)c3c(n(CC(C)C)c2=O)CCCC3)n1`, the IC50 in assay [1] was 4.9 µM.

Turning to `COc1ccc(CN(C(=O)c2cc3ccccc3oc2=O)C2CCCCC2)cc1OC`, in assay [1], the IC50 is 16.6 µM.

Take `Cn1c(-c2c(N)n(-c3ccccc3)c3nc4ccccc4nc23)nc2ccccc21`: the IC50 in assay [1] was 2.42 µM.

With `COc1ccc(-c2csc(NC(=O)C3=NN(c4ccccc4)C(=O)CC3)n2)cc1`, in assay [1], the IC50 is 20.7 µM.

Regarding `COc1ccc(-c2csc(NC(=O)c3ccco3)n2)cc1`, the IC50 in assay [1] was 19.3 µM.

Take `COc1cccc(C(=O)Nc2nc(-c3ccc4c(c3)OCO4)cs2)c1`: the half-inhibitory concentration (IC50) in assay [1] is 9.98 µM.

For the compound `COC(=O)c1ccccc1NC(=O)CN1CCC(NC(=O)c2ccccc2C)CC1`, the IC50 in assay [1] was 1.45 µM.

`CC(C)(C)n1nnnc1C(c1ccc(C(F)(F)F)cc1)N(Cc1ccc(F)cc1)Cc1ccco1` (stereo unspecified): in assay [1], the half-maximal inhibitory concentration (IC50) is 20.5 µM.

On to `CC1(c2ccc([N+](=O)[O-])cc2)CC(C)(C)N(C(=O)c2ccccc2)c2ccccc21` (stereo unspecified), for which the IC50 in assay [1] is 9.68 µM.

As to `CCOC(=O)c1ccc(N2C(=O)C3C(/C=C/c4ccccc4)OC4(C(=O)c5ccccc5C4=O)C3C2=O)cc1` (stereo unspecified), the IC50 in assay [1] was 19.6 µM.

Take `CCCCCCc1cc2cc(C(=O)Nc3ccccc3OC)c(=O)oc2cc1O`: in assay [1], the IC50 is 9.14 µM.

Regarding `O=C(/C=C/c1cccs1)Nc1scc(-c2ccccc2)c1C(=O)O`, the IC50 in assay [1] was 6.24 µM.

Turning to `Cc1cccc(C)c1-n1cccc1/C=C1/C(=N)N2C(=NC1=O)SN=C2S(C)(=O)=O`, the IC50 in assay [1] was 16.4 µM.

As for `C(=N\Nc1nc(-c2ccccc2)cs1)/c1cccs1`, the IC50 in assay [1] is 15.5 µM.

For `Cc1ccc(N2C(=O)/C(=C\c3ccc(C(C)C)cc3)N=C2SC2CCOC2=O)cc1` (stereo unspecified), the IC50 in assay [1] is 12.1 µM.

Consider `COC(=O)c1ccccc1NC(=O)CN1CCC(n2nnc3cc(F)ccc32)CC1`, for which the IC50 in assay [1] is 0.178 µM.

Regarding `O=C(CSc1nc(-c2ccccc2)nc2c1Cc1ccccc1O2)Nc1ccc(C(=O)O)cc1`, in assay [1], the IC50 was 17.5 µM.

As for `O=C(/C=C/c1ccccc1)Nc1scc(-c2ccccc2)c1C(=O)O`, in assay [1], the IC50 is 3.06 µM.

In the case of `O=C(/C=C/c1ccco1)Nc1sc2c(c1C(=O)O)CCC2`, in assay [1], the IC50 was 17 µM.

As for `Cc1nc(CS(=O)c2ccc(Cl)cc2)cc(NCc2ccc(Cl)cc2Cl)n1` (stereo unspecified), the IC50 in assay [1] was 9.42 µM.

For the compound `CC(C)(C)c1c(Cl)c(O)c(-c2ccccc2)c(=O)n1-c1ccccc1`, the IC50 in assay [1] was 15.5 µM.

On to `CCOc1ccc(N=Nc2c(=O)[nH]n3c(=O)c4c([nH]c23)CCCC4)cc1`, for which the IC50 in assay [1] was 16.6 µM.

Turning to `COc1ccc(NC(=O)c2cc3cccc(OC)c3oc2=Nc2ccc(C(=O)O)cc2)cc1OC`, the IC50 in assay [1] was 13.3 µM.

In the case of `Cc1nc(Nc2ccc3c(c2)OCCO3)c2nnn(Cc3ccccc3Cl)c2n1`, the IC50 in assay [1] was 20.8 µM.

Take `CC(=O)Nc1cccc(Oc2ncnc3scc(-c4ccccc4)c23)c1`: the IC50 in assay [1] is 15.6 µM.

Take `Cc1cc(C)c2cc(CN(Cc3cccnc3)C(=O)c3ccc(F)cc3)c(Cl)nc2c1`: the IC50 in assay [1] was 0.416 µM.

With `O=C(Nc1nc(-c2ccccc2)cs1)c1cccs1`, the IC50 in assay [1] was 10.1 µM.

Regarding `O=C(O)c1ccc(N2C(=O)/C(=C/c3ccc(-c4ccc([N+](=O)[O-])cc4)o3)C=C2c2ccccc2)cc1`, in assay [1], the IC50 is 5.33 µM.

Turning to `C=CCn1c(CNC(=O)c2cccs2)nnc1SCc1ccc(Cl)cc1Cl`, the IC50 in assay [1] is 11 µM.

Consider `COc1cc(C(=O)Nc2nc(-c3ccc(F)cc3)cs2)ccc1OCC(=O)N1CCOCC1`, for which the concentration for half-maximal inhibition (IC50) in assay [1] was 10.6 µM.

Consider `CC(C)Cc1csc(NC(=O)c2ccccc2Cl)c1C(=O)O`, for which, in assay [1], the IC50 was 20.6 µM.

For `Oc1ccc(Nc2nc(NCC3CCCO3)c3ccccc3n2)cc1` (stereo unspecified), the IC50 in assay [1] is 20.8 µM.

With `O=c1[nH]n2c(=O)c3c([nH]c2c1N=Nc1cccc(C(F)(F)F)c1)CCCC3`, the concentration for half-maximal inhibition (IC50) in assay [1] is 19.5 µM.

As to `C/C(=N\NC(=O)c1ccccc1C)c1ccc(NC(=O)c2cccs2)cc1`, in assay [1], the IC50 is 0.524 µM.

As for `CCc1nn2c(N)c(/C=C3\C=Nc4ccccc43)c(=O)nc2s1`, in assay [1], the IC50 is 18.3 µM.

`Oc1ccc(Br)cc1-c1cc(-c2ccc(Cl)cc2)n[nH]1`: the IC50 in assay [1] is 17.5 µM.

On to `COc1ccc(N=C2S/C(=C\c3ccc(OCC(=O)O)cc3)C(=O)N2CCc2c[nH]c3ccccc23)cc1`, for which the IC50 in assay [1] is 15.6 µM.

Take `O=C(Nc1nc(-c2ccc(Cl)cc2Cl)cs1)c1ccc(OCC2CCCO2)cc1` (stereo unspecified): the IC50 in assay [1] is 5.08 µM.

`CCOc1ccc(C(=O)Nc2cc(NC(=O)c3ccc(OCC)c(Cl)c3)cc(C(=O)O)c2)cc1Cl`: in assay [1], the IC50 is 20.9 µM.

On to `O=c1oc(-c2cc3ccccc3o2)nc2sc3c(c12)CCCC3`, for which the IC50 in assay [1] is 4.59 µM.

Regarding `COc1ccc(Cn2c(C)c(C)c(C#N)c2NC(=O)Nc2cccc(C)c2)cc1`, the IC50 in assay [1] was 7.63 µM.

Regarding `O=c1oc(/C=C/c2ccccc2)nc2sc3c(c12)CCC3`, in assay [1], the 50% inhibitory concentration (IC50) was 8.92 µM.

Consider `CCNc1nc(SCCOc2ccc(Cl)cc2Cl)nc(N(C)C)n1`, for which the IC50 in assay [1] was 5.92 µM.

Consider `CCOc1cc(/C=C(/C#N)c2ccc(Cl)cc2)cc(Cl)c1OCC(=O)O`, for which the IC50 in assay [1] is 20.6 µM.

Regarding `Cc1ccc(-c2csc(NC(=O)C3=NN(c4ccccc4)C(=O)CC3)n2)cc1`, the IC50 in assay [1] is 11.1 µM.

For `COc1ccc(C2C=C(c3ccc(C)cc3)Nc3ncnn32)cc1` (stereo unspecified), the IC50 in assay [1] was 13 µM.

Turning to `Cc1ccc(-c2csc(NC(=O)/C=C/c3ccco3)c2C(=O)O)cc1`, in assay [1], the IC50 was 8.57 µM.

With `CC(C(=O)Nc1ccccc1-c1ccccc1)N1CCN(S(=O)(=O)c2ccccc2)CC1` (stereo unspecified), in assay [1], the IC50 was 1.4 µM.

Consider `O=c1[nH]n2c(=O)c3c([nH]c2c1N=Nc1cccc(Cl)c1)CCCC3`, for which the IC50 in assay [1] was 18.5 µM.

On to `COCCCn1c(N)c(-c2nc3ccccc3n2C)c2nc3ccccc3nc21`, for which, in assay [1], the IC50 was 7.62 µM.

As for `Nc1nc(-c2ccccc2)c(-c2ccc([N+](=O)[O-])cc2)s1`, the IC50 in assay [1] was 5.6 µM.

For the compound `CCOC(=O)N1CCC(Nc2c(Nc3cccc(CC)c3)c(=O)c2=O)CC1`, in assay [2], the CPE inhibition was 9.52% (inactive).
